Measurements taken from US20220018855A1, “RGMa Fragment Based Diagnostic Assay” (ABBVIE DEUTSCHLAND GMBH & CO. KG, priority 2014, published 2022).
Entries after “also recorded” stand apart in the source; their conditions may differ.

Tests used:
[1] = test system: progressive multiple sclerosis patients; assay: Clinical evaluation (EDSS, maximum walking distance, walking speed) after repeated intrathecal TCA applications; assay type: in vivo, human; conditions: for clinical benefit / functional recovery: not immediately responding patients
Description: Subjects. 25 MS patients (age: 50±1.64 [mean±SEM, years] were studied. The average MS duration was 14.02±1.71 [years]. The subjects included 14 women and 11 men. The subjects included 13 secondary progressive [8 women, 5 men] and 12 primary progressive [6 women, 6 men]). […] Design. TCA application was followed by a mandatory stay in bed for at least six hours in order to support and ease the diffusion of TCA in the CSF and the spinal cord. Lumbar puncture was performed with an atraumatic Sprotte needle. The preexisting immune system modulating drug therapy remained stable. Spasticity reducing therapy was not changed. Expanded Disability Status Score (EDSS) ratings, maximum walking distance, and walking speed assessments were performed at baseline and on each day after a 40 mg Triamcinolone acetonide (TCA) administration, dissolved in 10 ml saline, up to the fourth TCA application. Statistics. ANCOVA with repeated measures design were employed for this exploratory analysis of this pilot trial. Covariates were MS duration, MS types, sex and age as covariates. The post hoc analysis was done with the Tukey's multiple comparisons test against baseline. The statistical analysis was performed with GraphPad Prism 5 Software. […] Clinical evaluation was performed at baseline and on each day after a triamcinolone administration in 25 progressive multiple sclerosis patients. Before the TCA was administered to a patient, 1-2 ml aliquots of CSF were withdrawn. RGMa concentrations were determined before each triamcinolone application by western blot analysis with quantification. Dependent on the disease activity, the patients usually received 4-6 TCA applications.

[2] = test system: progressive multiple sclerosis patients; assay: Side effects during TCA therapy; assay type: in vivo, human; conditions: all participants (25 MS patients)
Description: Design. TCA application was followed by a mandatory stay in bed for at least six hours in order to support and ease the diffusion of TCA in the CSF and the spinal cord. Lumbar puncture was performed with an atraumatic Sprotte needle. The preexisting immune system modulating drug therapy remained stable. Spasticity reducing therapy was not changed. Expanded Disability Status Score (EDSS) ratings, maximum walking distance, and walking speed assessments were performed at baseline and on each day after a 40 mg Triamcinolone acetonide (TCA) administration, dissolved in 10 ml saline, up to the fourth TCA application. […] Clinical evaluation was performed at baseline and on each day after a triamcinolone administration in 25 progressive multiple sclerosis patients. Before the TCA was administered to a patient, 1-2 ml aliquots of CSF were withdrawn. RGMa concentrations were determined before each triamcinolone application by western blot analysis with quantification. Dependent on the disease activity, the patients usually received 4-6 TCA applications.

RGMa = RGMa levels in cerebrospinal fluid by Western blot with densitometric quantification; assay type: in vivo, human
MS patients = conditions: cited from earlier work
[3] = treated MS patients, numerous TCA studies

CC1(C)O[C@@H]2C[C@H]3[C@@H]4CCC5=CC(=O)C=C[C@]5(C)[C@@]4(F)[C@@H](O)C[C@]3(C)[C@]2(C(=O)CO)O1 [TCA, triamcinolone acetonide]
walking speed ([1]; 8 not immediately responding patients, F=0.021, ns, FIG. 4C): no significant change; also recorded: no improved
EDSS scores ([1]; 8 not immediately responding patients, F=1, ns, FIG. 4A): no significant change; also recorded: no improved
maximum walking distances ([1]; 8 not immediately responding patients, F=1.52, ns, FIG. 4B): no significant change; also recorded: no improved
walking speed ([1]; 17 immediate responders (3 wheel chair bound excluded), F=3.42, p<0.01, FIG. 3C): improved
walking speed ([1]; 17 immediate responders (3 wheel chair bound excluded), F=3.42, p<0.01, FIG. 3C, listed as Triamcinolone Acetonide): went up
walking speed ([1]; 17 immediate responders (3 wheel chair bound excluded), F=3.42, p<0.01, FIG. 3C, listed as triamcinolone): ameliorated
maximum walking distances ([1]; 17 immediate responders (3 wheel chair bound excluded), F=3.64, p=0.01, FIG. 3B): improved
maximum walking distances ([1]; 17 immediate responders (3 wheel chair bound excluded), F=3.64, p=0.01, FIG. 3B, listed as Triamcinolone Acetonide): increased
maximum walking distances ([1]; 17 immediate responders (3 wheel chair bound excluded), F=3.64, p=0.01, FIG. 3B, listed as triamcinolone): ameliorated
EDSS scores ([1]; 17 immediate responders, 40 mg TCA intrathecal, repeated, F=8.55, p<0.009, FIG. 3A): improved
EDSS scores ([1]; 17 immediate responders, 40 mg TCA intrathecal, repeated, F=8.55, p<0.009, FIG. 3A, listed as Triamcinolone Acetonide): went down
EDSS scores ([1]; 17 immediate responders, 40 mg TCA intrathecal, repeated, F=8.55, p<0.009, FIG. 3A, listed as triamcinolone): improved
patients reporting a delayed improvement within three weeks after the TCA applications ([1]; among the 8 not immediately responding patients): 6 patients
clinical benefit / functional recovery [1]: no functional recovery
clinical benefit / functional recovery ([1]; listed as triamcinolone): no prompt clinical benefit
patients improved following treatment ([1]; of 25 progressive MS patients): 17 patients
patients who did not immediately respond during the observation period ([1]; of 25 progressive MS patients): 8 patients
serious side effects [2]: no serious side effects
RGMa concentrations in CSF (RGMa; not immediately responding patients): no decrease
RGMa 40 kDa form level in CSF (RGMa; not immediately responding patients, F=0.84, ns, FIG. 7A): No significant changes
RGMa 30 kDa form level in CSF (RGMa; not immediately responding patients, F=2.98, ns, FIG. 7B): No significant changes
RGMa levels in CSF (all investigated fragments) (RGMa; responders): decreased
RGMa 40 kDa form level in CSF (RGMa; responders, F=9.12, p<0.0001, FIG. 5A): decline
RGMa 30 kDa form level in CSF (RGMa; responders, less pronounced than 40 kDa, F=3.82, p<0.05, FIG. 5B): decline
RGMa levels in CSF (all investigated fragments) (RGMa; responders, listed as Triamcinolone Acetonide): reduction
RGMa levels in CSF (all investigated fragments) (RGMa; responders, listed as triamcinolone): declined
CSF synthesis of free radicals (MS patients; patients with a distinct immediate enhancement of upper and lower limb function): Reduced
EDSS (Expanded Disability Status Score) (MS patients; [3]): decreased
walking distance (MS patients; [3]): increased
walking speed (MS patients; [3]): decreased
